From patent publication US20060063784A1, “Method of using substituted pyrazolo [1,5-a] pyrimidines” (priority 2004, published 2006)
Read-outs that look alike come from different tables or passages of the source.

Tested on: 80S14 (p21-deficient) cells
Assay: Cytotoxicity assay using isogenic cell lines: IC50 in 80S14 (p21-deficient) cells, SRB
Format: cell-based, human
Summary of the method: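 IC50 is the concentration halving proliferation relative to untreated controls, read from SRB absorbance (560 nm) after TCA fixation. Test agent dilutions (5 pM–50 μM or 170 pg/ml–10 μg/ml) were left on p21-deficient 80S14 cells (12,000/well, pre-incubated overnight) for 5 days at 37 °C.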

[1] = Homo sapiens, 120 h, 80S14 p21-deficient cells, 5 days incubation, SRB, read-out: IC50 for 80SI4
[2] = 80S14 p21-deficient cells, 5 days incubation, SRB, read-out: IC50 for 80SI4
[3] = Homo sapiens, 80S14, 120 h, read-out: IC50 for 80SI4 (uM)

Structure (SMILES)	IC50 [1] [µM]	other results
CC(CC(=O)Nc1cccc(-c2ccnc3c(C(=O)c4cccs4)cnn23)c1)CC(C)(C)C (centres unmarked) [Example 140, 3,5,5-trimethyl-N-{3-[3-(thien-2-ylcarbonyl)pyrazolo[1,5-a]pyrimidin-7-yl]phenyl}hexanamide]	< 1	–
CC(CCl)(CCl)C(=O)Nc1cccc(-c2ccnc3c(C(=O)c4cccs4)cnn23)c1 [Example 141, 3-chloro-2-(chloromethyl)-2-methyl-N-{3-[3-(thien-2-ylcarbonyl)pyrazolo[1,5-a]pyrimidin7-yl]phenyl}propanamide]	< 1	–
CCCCCCCCCCC(=O)Nc1cccc(-c2ccnc3c(C(=O)c4cccs4)cnn23)c1 [Example 142, N-{3-[3-(thien-2-ylcarbonyl)pyrazolo[1,5-a]pyrimidin-7-yl]phenyl}undecanamide]	10 to 50	–
CC1(C(=O)Nc2cccc(-c3ccnc4c(C(=O)c5cccs5)cnn34)c2)CCCCC1 [Example 143, 1-methyl-N-{3-[3-(thien-2-ylcarbonyl)pyrazolo[1,5-a]pyrimidin-7-yl]phenyl}cyclohexanecarboxamide]	< 1	–
O=C(Nc1cccc(-c2ccnc3c(C(=O)c4cccs4)cnn23)c1)C(Cl)=C(Cl)Cl [Example 144, 2,3,3-trichloro-N-{3-[3-(thien-2-ylcarbonyl)pyrazolo[1,5-a]pyrimidin-7-yl]phenyl}acrylamide]	< 1	–
CCC(C)C(=O)Nc1cccc(-c2ccnc3c(C(=O)c4cccs4)cnn23)c1 (centres unmarked) [Example 145]	–	IC50 [2]: < 1 µM
O=C(CCC1CCCC1)Nc1cccc(-c2ccnc3c(C(=O)c4cccs4)cnn23)c1 [Example 146, 3-cyclopentyl-N-{3-[3-(thien-2-ylcarbonyl)pyrazolo[1,5-a]pyrimidin-7-yl]phenyl}propanamide]	1 to 10	–
CCCCC(CC)C(=O)Nc1cccc(-c2ccnc3c(C(=O)c4cccs4)cnn23)c1 (centres unmarked) [Example 147, 2-ethyl-N-{3-[3-(thien-2-ylcarbonyl)pyrazolo[1,5-a]pyrimidin-7-yl}phenyl}hexanamide]	1 to 10	–
C/C=C/C(=O)Nc1cccc(-c2ccnc3c(C(=O)c4cccs4)cnn23)c1 [Example 149, (2E)-N-{3-[3-(thien-2-ylcarbonvl)pyrazolo[1,5-a]pyrimidin-7-yl]phenyl}but-2-enamide]	–	IC50 [2]: 1 to 10 µM
CCC(CC)C(=O)Nc1cccc(-c2ccnc3c(C(=O)c4cccs4)cnn23)c1 [Example 150, 2-ethyl-N-{3-[3-(thien-2-ylcarbonyl)pyrazolo[1,5-a]pyrimidin-7-yl]phenyl}butanamide]	–	IC50 [3]: 1 to 10 µM
CCCCCCC(=O)Nc1cccc(-c2ccnc3c(C(=O)c4cccs4)cnn23)c1 [Example 151, N-{3-[3-(thien-2-ylcarbonyl)pyrazolo[1,5-a]pyrimidin-7-yl]phenyl}heptanamide]	1 to 10	–
CCCCCC(=O)Nc1cccc(-c2ccnc3c(C(=O)c4cccs4)cnn23)c1 [Example 153]	–	IC50 [2]: < 1 µM
CCCC(C)C(=O)Nc1cccc(-c2ccnc3c(C(=O)c4cccs4)cnn23)c1 (centres unmarked) [Example 154, 2-methyl-N-{3-[3-(thien-2-ylcarbonyl)pyrazolo[1,5-a]pyrimidin-7-yl]phenyl}pentanamide]	–	IC50 [3]: < 1 µM
CN(C)CCNC(=O)Nc1cccc(-c2ccnc3c(C(=O)c4cccs4)cnn23)c1 [Example 161, N-[2-(dimethylamino)ethyl]-N′-{3-[3-(thien-2-ylcarbonlyl)pyrazolo[1,5-a]pyrimidin-7-yl]phenyl}urea]	–	IC50 [2]: 10 to 50 µM
CN1CCN(C(=O)Nc2cccc(-c3ccnc4c(C(=O)c5cccs5)cnn34)c2)CC1 [Example 166, 4-methyl-N-{3-[3-(thien-2-ylcarbonyl)pyrazolo[1,5-a]pyrimidin-7-yl]phenyl}piperazine-1-carboxamide]	1 to 10	–
CN1CCCN(C(=O)Nc2cccc(-c3ccnc4c(C(=O)c5cccs5)cnn34)c2)CC1 [Example 167, 4-methyl-N-{3-[3-(thien-2-ylcarbonyl)pyrazolo[1,5-a]pyrimidin-7-yl]phenyl}-1,4-diazepane-1-carboxamide]	1 to 10	–
O=C(Nc1cccc(-c2ccnc3c(C(=O)c4cccs4)cnn23)c1)OCCc1ccsc1 [Example 179, 2-thien-3-ylethyl 3-[3-(thien-2-ylcarbonyl)pyrazolo[1,5-a]pyrimidin-7-yl]phenylcarbamate]	1 to 10	–
O=C(Nc1cccc(-c2ccnc3c(C(=O)c4cccs4)cnn23)c1)OCCN1CCCCC1 [Example 180, 2-piperidin-1-ylethyl 3-[3-(thien-2-ylcarbonyl)pyrazolo[1,5-a]pyrimidin-7-yl]phenylcarbamate]	1 to 10	–
O=C(Nc1cccc(-c2ccnc3c(C(=O)c4cccs4)cnn23)c1)OCCN1CCOCC1 [Example 181, 2-morpholin-4-ylethyl 3-[3-(thien-2-ylcarbonyl)pyrazolo[1,5-a]pyrimidin-7-yl]phenylcarbamate]	< 1	–

Structure (SMILES)	IC50 [1] [µM]	other results
C=CC(C)OC(=O)Nc1cccc(-c2ccnc3c(C(=O)c4cccs4)cnn23)c1 (centres unmarked) [Example 182, 1-methylprop-2-enyl 3-[3-(thien-2-ylcarbonyl)pyrazolo[1,5-a]pyrimidin-7-yl]phenylcarbamate]	–	IC50 [3]: < 1 µM
C#CCC(C)OC(=O)Nc1cccc(-c2ccnc3c(C(=O)c4cccs4)cnn23)c1 (centres unmarked) [Example 183, 1-methylbut-3-ynyl 3-[3-(thien-2-ylcarbonyl)pyrazolo[1,5-a]pyrimidin-7-yl]phenylcarbamate]	< 1	–
CCC(OC(=O)Nc1cccc(-c2ccnc3c(C(=O)c4cccs4)cnn23)c1)C(C)C (centres unmarked) [Example 184, 1-ethyl-2-methylpropyl 3-[3-(thien-2-ylcarbonyl)pyrazolo[1,5-a]pyrimidin-7-yl]phenylcarbamate]	1 to 10	–
CC(C)CC(C)OC(=O)Nc1cccc(-c2ccnc3c(C(=O)c4cccs4)cnn23)c1 (centres unmarked) [Example 185, 1,3-dimethylbutyl3-[3-(thien-2-ylcarbonyl)pyrazolo[1,5-a]pyrimidin-7-yl]phenylcarbamate]	1 to 10	–
CCC(CC)OC(=O)Nc1cccc(-c2ccnc3c(C(=O)c4cccs4)cnn23)c1 [Example 186, 1-ethylpropyl 3-[3-(thien-2-ylcarbonyl)pyrazolo[1,5-a]pyrimidin-7-yl]phenylcarbamate]	< 1	–
CC1CC1COC(=O)Nc1cccc(-c2ccnc3c(C(=O)c4cccs4)cnn23)c1 (centres unmarked) [Example 187, (2-methylcyclopropyl)methyl 3-[3-(thien-2-ylcarbonyl)pyrazolo[1,5-a]pyrimidin-7-yl]phenylcarbamate]	< 1	–
CC1CCC(OC(=O)Nc2cccc(-c3ccnc4c(C(=O)c5cccs5)cnn34)c2)C1 (centres unmarked) [Example 188, 3-methylcyclopentyl 3-[3-(thien-2-ylcarbonyl)pyrazolo[1,5-a]pyrimidin-7-yl]phenylcarbamate]	< 1	–
C=CCC(C)OC(=O)Nc1cccc(-c2ccnc3c(C(=O)c4cccs4)cnn23)c1 (centres unmarked) [Example 189, 1-methylbut-3-enyl 3-[3-(thien-2-ylcarbonyl)pyrazolo[1,5-a]pyrimidin-7-yl]phenylcarbamate]	< 1	–
CC(OC(=O)Nc1cccc(-c2ccnc3c(C(=O)c4cccs4)cnn23)c1)C1CC1 (centres unmarked) [Example 190, 1-cyclopropylethyl 3-[3-(thien-2-ylcarbonyl)pyrazolo[1,5-a]pyrimidin-7-yl]phenylcarbamate]	< 1	–
CC(C)C(C)OC(=O)Nc1cccc(-c2ccnc3c(C(=O)c4cccs4)cnn23)c1 (centres unmarked) [Example 191, 1,2-dimethylpropyl 3-[3-(thien-2-ylcarbonyl)pyrazolo[1,5-a]pyrimidin-7-yl]phenylcarbamate]	< 1	–
CCCC(OC(=O)Nc1cccc(-c2ccnc3c(C(=O)c4cccs4)cnn23)c1)C(C)C (centres unmarked) [Example 192, 1-isopropylbutyl 3-[3-(thien-2-ylcarbonyl)pyrazolo[1,5-a]pyrimidin-7-yl]phenylcarbamate]	1 to 10	–
C#CCCOC(=O)Nc1cccc(-c2ccnc3c(C(=O)c4cccs4)cnn23)c1 [Example 193, but-3-ynyl 3-[3-(thien-2-ylcarbonyl)pyrazolo[1,5-a]pyrimidin-7-yl]phenylcarbamate]	–	IC50 [3]: < 1 µM
CCCCOC(=O)Nc1cccc(-c2c(C)cnc3c(C(=O)c4cccs4)cnn23)c1 [Example 209, butyl 3-[6-methyl-3-(thien-2-ylcarbonyl)pyrazolo[1,5-a]pyrimidin-7-yl]phenylcarbamate]	10 to 50	–
C=CCOC(=O)Nc1cccc(-c2c(C)cnc3c(C(=O)c4cccs4)cnn23)c1 [Example 210, allyl 3-[6-methyl-3-(thien-2-ylcarbonyl)pyrazolo[1,5-a]pyrimidin-7-yl]phenylcarbamate]	10 to 50	–
Cc1cnc2c(C(=O)c3cccs3)cnn2c1-c1cccc(NC(=O)OCCCl)c1 [Example 212, 2-chloroethyl 3-[6-methyl-3-(thien-2-ylcarbonyl)pyrazolo[1,5-a]pyrimidin-7-yl]phenylcarbamate]	10 to 50	–
C=CCCOC(=O)Nc1cccc(-c2c(C)cnc3c(C(=O)c4cccs4)cnn23)c1 [Example 213, but-3-enyl 3-[6-methyl-3-(thien-2-ylcarbonyl)pyrazolo[1,5-a]pyrimidin-7-yl]phenylcarbamate]	10 to 50	–
Cc1cnc2c(C(=O)c3cccs3)cnn2c1-c1cccc(NC(=O)CC(C)C)c1 [Example 215, 3-methyl-N-{3-[6-methyl-3-(thien-2-ylcarbonyl)pyrazolo[1,5-a]pyrimidin-7-yl]phenyl}butanamide]	10 to 50	–
Cc1cnc2c(C(=O)c3cccs3)cnn2c1-c1cccc(NC(=O)c2ccccc2)c1 [Example 216, N-{3-[6-methyl-3-(thien-2-ylcarbonyl)pyrazolo[1,5-a]pyrimidin-7-yl]phenyl}benzamide]	10 to 50	–
Cc1cnc2c(C(=O)c3cccs3)cnn2c1-c1cccc(NC(=O)C2CCCC2)c1 [Example 218, N-{3-[6-methyl-3-(thien-2-ylcarbonyl)pyrazolo[1,5-a]pyrimidin-7-yl]phenyl}cyclopentanecarboxamide]	10 to 50	–
